Assay results reported in patent US8202836B2, “Modified PYY (3-36) peptides and their effects on feeding behavior” (Imperial Innovations Limited, priority 2005, dated 2012).

What was measured:
[1] = tested on: Male Wistar rats; assay: Food intake after intraperitoneal injection in overnight-fasted rats; type: in vivo; conditions: for reduction of food intake by 30 μg/kg versus a 100 μg/kg dose of PYY(3-36): dose response, peripheral injection after overnight fast
Method: (§1) Male C57BL/6 mice (20-30 g) were used for all mouse experiments. Male Wistar rats were used for the rat experiments. Mice or rats were individually housed in IVC cages. Animals were randomised by weight and fasted overnight for 16 hrs before intraperitoneal injection at 9 am. Food intake was measured at 1, 2, 4, 6 and 24 hours post injection. All peptide solutions were prepared freshly the morning of the study and injected as 100 μl. All statistics are calculated using the student's paired t-test.
The experiment was identical to Example 2, except that Wistar rats were used instead of C57BL/6 mice. 30 μg/kg or 100 μg/kg of PYY(3-36) or D_allo_ILeu^3 PYY(3-36) was injected after an overnight fast and food intake was measured at time intervals over a period of 24 hours. In the Figures, significance versus saline is indicated by *=p<0.05, **=p<0.01, ***=p<0.001 paired t-test.

[2] = tested on: Male C57BL/6 mice; assay: Food intake after intraperitoneal injection in overnight-fasted mice; type: in vivo; conditions: for reduction of food intake by 30 μg/kg versus a 100 μg/kg dose of PYY(3-36): dose response, peripheral injection after overnight fast
Method: as §1
Mice were injected with PYY(3-36) 100 μg/kg, allo_ILeu^3 PYY(3-36) 100 μg/kg, D_allo_ILeu^3 PYY(3-36) 100 μg/kg or saline (n=10/group) and food intake was measured at time intervals over 24 hours. In the Figure, significance versus saline is indicated by *=p<0.05, **=p<0.01, ***=p<0.001 paired t-test.
30 μg/kg or 100 μg/kg of PYY(3-36) or D_allo_ILeu^3 PYY(3-36) was injected after an overnight fast and food intake was measured at time intervals over a period of 24 hours. In the Figures, significance versus saline is indicated by *=p<0.05, **=p<0.01, ***=p<0.001 paired t-test.

[3] = from 30 μg/kg vs 100 μg/kg comparison

## D-allo-Ile^3 PYY3-36 [D_allo_ILeu^3 PYY(3-36)]
[1]; 0-4 hours
  decrease of food intake over the total period 0-4 hours versus native PYY3-36: to a greater extent
[1]
  reduction of food intake by 30 μg/kg versus a 100 μg/kg dose of PYY(3-36): at least as powerful
[1]; listed as D-allo-Ile^3 PYY3-36
  reduction of food intake by 30 μg/kg versus a 100 μg/kg dose of PYY(3-36): same decrease in food intake
[1]; [3]
  superiority in efficacy over PYY(3-36): 3 fold
[1]; same quantity
  decrease in food intake versus the same quantity of normal human PYY3-36: greater decrease in food intake
[2]; 0-4 hours
  decrease of food intake over the total period 0-4 hours versus native PYY3-36: to a greater extent
[2]; 100 μg/kg each, 0-1 hr
  cumulative food intake compared to the PYY(3-36) injected group (p, paired t-test): 0.0138
[2]; 100 μg/kg each, 0-2 hr
  cumulative food intake compared to the PYY(3-36) injected group (p, paired t-test): 0.0063
[2]; 100 μg/kg each, 0-4 hr
  cumulative food intake compared to the PYY(3-36) injected group (p, paired t-test): 0.0003
[2]; 100 μg/kg each, 0-6 hr
  cumulative food intake compared to the PYY(3-36) injected group (p, paired t-test): 0.0024
[2]; 100 μg/kg each, 24 hr
  food intake over a 24 hr period compared to the PYY(3-36) 100 μg/kg group (p, paired t-test): 0.0554
[2]; 100 μg/kg intraperitoneal after overnight fast, n=10/group
  food intake compared with saline: significantly decreased food intake
[2]
  reduction of food intake by 30 μg/kg versus a 100 μg/kg dose of PYY(3-36): at least as powerful
[2]; listed as D-allo-Ile^3 PYY3-36
  reduction of food intake by 30 μg/kg versus a 100 μg/kg dose of PYY(3-36): same decrease in food intake
[2]; [3]
  superiority in efficacy over PYY(3-36): 3 fold
